Tests used:
[1] = tested on: gluthathione-S-transferase (GST, EC 2.5.1.18); assay: Spectrophotometric determination of EC 2.5.1.18 (GST) induction in PC-12 cells; format: cell-based; conditions: Rat PC-12 cells, 24 hours incubation; negative logarithm of molar concentration causing 50% induction of enzyme activity; CDNB and GSH substrates
Experimental: Spectrophotometric Determination of EC 2.5.1.18 (GST) Induction
Rat PC-12 cells are incubated for 24 hours with a test compound. GST activity is measured using 1-chloro-2,4-dinitrobenzene (CDNB) and gluthathine (GSH) as substrates. The enzyme catalyses the reaction converting these substrates into S-(2,4-dinitrophenyl)glutathione, which product is measured spectrophotometrically at 340 nm. The effect of the test compound is expressed as pEC50: the negative logarithm of the molar concentration of the compound which causes 50% induction of the enzyme activity. Also the maximal percentage enzyme induction is determined. (see Drukarch et al. “Anethole dithiolethione prevents oxidative damage in gluthathione-depleted astrocytes”, Eur. J. Pharmacol. 329, 259-262, 1997).

[2] = tested on: NAD(P)H: oxidoreductase (NQO, EC 1.6.99.2); assay: Spectrophotometric determination of EC 1.6.99.2 (NQO) induction in PC-12 cells; format: cell-based; conditions: Rat PC-12 cells, 24 hours incubation; negative logarithm of molar concentration causing same half maximal induction as reference compound D3T; menadione/MTT
Experimental: Spectrophotometric Determination of EC 1.6.99.2 (NQO) Induction
Rat PC-12 cells are incubated for 24 hours with a test compound. NAD(P)H: oxidoreductase (NQO, EC 1.6.99.2) activity is measured using menadione as substrate and MTT as readout compound. The formation of formazan from MTT is measured spectrophotometrically at 540 nm. The percentage stimulation (PS) relative to the maximal effect of the reference compound D3T is calculated. The maximal percentage stimulation with the concentration which induced the maximal percentage as condition and the pEA50 value (the negative logarithm of the molar concentration of the compound which caused the same half maximal induction of the enzyme activity as the reference compound D3T) are recorded (see Murphy et al., “Enhanced NAD(P)H:Quinone reductase activity defenses in neuronal cells prevents free radical-mediated damage”, J. Neurochem., 71 69-77, 1998 and Prochaska et al., Analytical Biochemistiy, 169, 328-336 1988).

Compound | melting point [°C] | GST pEC50 [1] | NQO pEA50 [2]
CCCCc1ccc(N=c2nc(N(C)C)ss2)cc1 [Compound A2] | 81 to 82.5 | 5.2 | 5.2
CN(C)c1nc(=Nc2ccc([N+](=O)[O-])cc2)ss1 [Compound A10] | 170 to 171.5 | 5.4 | 5.8
Cc1cccc(N=c2nc(N3CCOCC3)ss2)c1 [Compound B5] | 217 to 226 | 5.3 | 5.7
CN=c1ssc(=Nc2ccccc2)n1C [Compound C2] | 80 to 82 | 5.8 | 6.2
CN=c1ssc(=Nc2ccccc2C)n1C [Compound C3] | 100 to 101.4 | 5.8 | 5.7
CN=c1ssc(=Nc2cccc(F)c2)n1C [Compound C11] | 76.5 to 77.6 | 5.6 | 5.3
